Test results as given in patent US20020015940A1, “Method of gene expression screening” (priority 2000, published 2002).

What was measured:
E. coli = test: toxicity response in the microbial system; type: cell-based; conditions: system of the present invention; consistent with mammalian cell studies
Procedure: (§1) 2.0% cultures were grown from saturated overnight cultures at […] with shaking at 260 rpm for 3 hours. A 4.0% inoculum was mixed with […] top agar (10 g/L NaCl, 5.0 g/L yeast extract, 10 g/L tryptone, 7.0 g/L agar) and 10 ml was layered on 150 mm petri dishes containing LB and ampicillin. 10 μl of each drug to be tested was spotted onto the plate and incubated at 35° C. overnight. Colonies were screened when plated onto LB plates containing compounds that are known to activate oxidative stress genes, paraquat and hydrogen peroxide.
(§2) As the drug diffuses through the media, it created a concentration gradient.

[1] = test system: E. coli harboring the stress probes (soxS and sodA); test: high throughput 96-well dose-response of stress probes; type: cell-based; conditions: for promoter probes turned on (mode of action): FIG. 5A and 5B
Procedure: 4. 0% cultures of E. coli harboring the stress probes were grown from a saturated overnight culture in 250 ml shake flasks containing 25 ml LB media and 100 μg/ml ampicillin at 35° C. with shaking at 260 rpm until the optical density reached 0.8 at 600 nm. 100 μl aliquots of culture were added to each well of a 96-well plate, along with 10 μl of various concentrations of the drug to be tested and incubated overnight. Experiments were run in duplicate. Fluorescence intensity and optical density measurements were taken using a Wallac 1420 VICTOR multilabel counter.
To test whether the procedure of Example 4 would work in a quantitative high throughput format, an experiment was conducted where the anti-tumor drug DNR was serially diluted and dose-response tested in a 96-well plate. For comparison, a similar experiment was conducted with paraquat.

[2] = test system: pCRA11, sodA promoter probe construct; test: agar plate spotting, zone of induction (green halo); type: cell-based, E. coli; conditions: higher and varied concentrations of drugs spotted on plate, overnight
Procedure: as §1, §2

sodA promoter probe = test: stress probe-GFP fusion fluorescence after oxidative stress; type: cell-based, E. coli; conditions: varying concentrations of stressor, 4 hours post-stress
Excerpt: (§3) Using GenBank to obtain the genomic sequence for each of the oxidative stress response genes, PCR primers are designed to amplify the promoter region. Generally the target for amplification was approximately 300 base pairs and encompasses the sequence upstream from the native translational start site. […] The entire promoter region flanked by incorporated restriction sites was cloned in frame with GFP on a plasmid. The stress probes were then transformed into E. coli.
(§4) Cells containing each stress probe-GFP fusion were cultured to early log phase, stressed with varying concentrations of paraquat or H2O2, and the fluorescence intensity measured at 4 hours post-stress. Due to the lethality of the higher concentrations of stresses, dividing by optical density (OD) normalized the fluorescence intensity values.

recA promoter probe = test: as above; type: cell-based, E. coli; conditions: varying concentrations of stressor, 4 hours post-stress
Excerpt: as §3, §4

dps promoter probe = test: as above; type: cell-based, E. coli; conditions: varying concentrations of stressor, 4 hours post-stress
Excerpt: as §3, §4

zwf promoter probe = test: as above; type: cell-based, E. coli; conditions: varying concentrations of stressor, 4 hours post-stress
Excerpt: as §3, §4

acnA promoter probe = test: as above; type: cell-based, E. coli; conditions: varying concentrations of stressor, 4 hours post-stress
Excerpt: as §3, §4

sodA-GFP stress probe = test: rate of change of GFP signal; type: cell-based, E. coli; conditions: continuous stress by bolus of paraquat, FIG. 6
Excerpt: The rate of change of the GFP signal measures the rate of the stress protein induction. This experiment compares the response of the sodA promoter to stresses in the form of a bolus of paraquat in one culture and a transient exposure to hyperoxia in another. A control culture consisting of uninduced sodA:GFP was included for comparison. […] An uninduced culture was included for comparison purposes.
The disadvantages of GFP as a reporter gene are its lag time for fluorescence (approximately 90 minutes) and extraordinary stability. One way to compensate for these is to measure the rate of change of the GFP fluorescence, which is possible using an LED-based sensor that permits continuous in situ measurements. The cell specific rate of change of GFP normalized to optical density is then a measure of the rate of gene expression of the stress protein.

In the case of CCOC(=O)NC1=C(N2CC2)C(=O)C(NC(=O)OCC)=C(N2CC2)C1=O [AZQ, diaziquone], the “rank order of toxicity response” value (E. coli) is reported as “MeDZQ, DZQ, and AZQ, were ranked in decreasing order of toxicity response”.

For COc1cccc2c1C(=O)c1c(O)c3c(c(O)c1C2=O)C[C@@](O)(C(C)=O)C[C@@H]3O[C@H]1C[C@H](N)[C@H](O)[C@H](C)O1 [DNR, daunorubicin], the “promoter probes turned on (mode of action)” value ([1]; 96-well plate) was “turning on soxS and sodA”, the “toxicity to cells beyond the concentration of maximal response” value ([1]; above 20 μM, 96-well plate) was “becomes toxic and kills cells” and the “concentration at which maximal response is observed” value ([1]; serial dilution in 96-well plate, overnight, FIG. 5A) was 20 µM.

For O=C1C=C(N2CC2)C(=O)C=C1N1CC1 [DZQ], the “rank order of toxicity response” value (E. coli) was “MeDZQ, DZQ, and AZQ, were ranked in decreasing order of toxicity response”.

With COc1cccc2c1C(=O)c1c(O)c3c(c(O)c1C2=O)C[C@@](O)(C(=O)CO)C[C@@H]3O[C@H]1C[C@H](N)[C@H](O)[C@H](C)O1 [Doxorubicin, doxorubicin] the “induction of sodA promoter probe compared with induction of recA” value [2] was “stronger induction of sodA than its induction of recA”.

With CC1=C(N2CC2)C(=O)C(C)=C(N2CC2)C1=O [MeDZQ, methyl diaziridinequinone] the “rank order of toxicity response” value (E. coli) was “MeDZQ, DZQ, and AZQ, were ranked in decreasing order of toxicity response”.

For OO [hydrogen peroxide], the “fluorescence intensity normalized by optical density, sodA promoter probe” value (sodA promoter probe) was “no inducible response”, the “fluorescence intensity normalized by optical density, recA promoter probe” value (recA promoter probe) was “dose dependent response” and the “fluorescence intensity normalized by optical density, dps promoter probe” value (dps promoter probe) was “dose dependent response”. For the same compound, the “fluorescence intensity normalized by optical density, zwf promoter probe” value (zwf promoter probe) was “no inducible response” and the “fluorescence intensity normalized by optical density, acnA promoter probe” value (acnA promoter probe) was “no inducible response”.

With C[n+]1ccc(-c2cc[n+](C)cc2)cc1 [paraquat] the “fluorescence intensity normalized by optical density, sodA promoter probe” value (sodA promoter probe) was “dose dependent response”, the “fluorescence intensity normalized by optical density, recA promoter probe” value (recA promoter probe) was “do not show a dose dependent response and are only inducible when exposed to higher paraquat concentrations” and the “fluorescence intensity normalized by optical density, dps promoter probe” value (dps promoter probe) was “do not show a dose dependent response and are only inducible when exposed to higher paraquat concentrations”. The “fluorescence intensity normalized by optical density, zwf promoter probe” value (zwf promoter probe) was “dose dependent response”, the “fluorescence intensity normalized by optical density, acnA promoter probe” value (acnA promoter probe) was “dose dependent response” and the “rate of sodA expression (GFP derivative)” value (sodA-GFP stress probe) was “continual gene expression of sodA”. The “promoter probes turned on (mode of action)” value ([1]; 96-well plate) was “turning on soxS and sodA” and the “shape of dose response” value ([1]; serial dilution in 96-well plate, overnight, FIG. 5B) was “monotonically increasing response”.
